Measurements as given in US7855294B2, “Cycloalkanopyridine derivative” (Banyu Pharmaceutical Co., Ltd., priority 2004, dated 2010).
Where a name gives a salt, the structure may show the parent alone.

Key:
nociceptin receptor ORL1 [1] = target: T1, nociceptin receptor ORL1 (Homo sapiens, UniProt P41146); test: Antagonism against nociceptin-elicited G protein activation (GTPγ[35S] binding, CHO/ORL1 membrane); assay type: biochemical; set-up: expressed in transfected cells; membrane preparation
Experimental: CHO cells which stably expressed a nociceptin receptor ORL1 were used to investigate the action of each test compound against nociceptin-elicited G protein activation. A membrane prepared from the CHO/ORL1 cells, 50 nM nociceptin, 200 pM GTPγ[^35S] (by NEN), 1.5 mg of wheat germ agglutinin SPA beads (by Amersham Pharmacia) and each test compound were mixed in a GDP buffer (20 mM Hepes, 100 mM sodium chloride, 10 mM magnesium chloride, 1 mM EDTA, 5 μM GDP, pH 7.4) and incubated at 25° C. for 150 minutes, and then the radioactivity of the culture was determined.

nociceptin receptor ORL1 [2] = target: T1, nociceptin receptor ORL1; test: Nociceptin receptor binding inhibition assay ([125I]Tyr14-Nociceptin, CHO/ORL1 membrane fractions, SPA beads); set-up: expressed in transfected cells; membrane fractions
Experimental: A cDNA that codes for a human nociceptin receptor gene was cloned into an expression vector pCR3 (by Invitrogen) to prepare pCR3/ORL1. Next, pCR3/ORL1 was transfected in CHO cells using a transfectam (by Nippongene) to obtain a stable expression strain (CHO/ORL1 cells) having resistance against 1 mg/ml G418. Membrane fractions were prepared from this stable expression strain to carry out a receptor binding assay. 11 μg of the membrane fraction, 50 pM [^125I]Tyr^14-Nociceptin (by Amersham Pharmacia), 1 mg of wheat germ agglutinin SPA beads (PVT based, by Amersham Pharmacia) and each test compound were suspended in an NC buffer (50 mM Hepes, 10 mM sodium chloride, 1 mM magnesium chloride, 2.5 mM calcium chloride, 0.1% BSA, 0.025% bacitracin, pH 7.4) and incubated at 37° C. for 60 minutes, and then the radioactivity of the culture was determined.

male ICR (CD-1) mice = test: Antagonism test: hypokinesis (suppression of motion) induced by a nociceptin agonist; assay type: in vivo; conditions: test compound 1 to 10 mg/kg and nociceptin agonist 1 mg/kg hypodermically; motion for 60 minutes; difference between agonist group and solvent control group set to 100%
Experimental: Using male ICR (CD-1) mice (weighing 20 to 40 g), antagonism to hypokinesis (suppression of motion) induced by a nociceptin agonist was observed. That is, the quantity of motion of each mouse in a 20 cm×30 cm×20 cm cage was measured with an infrared sensor. The test compound (1 to 10 mg/kg) as dissolved in either 0.5% methyl cellulose liquid or a solvent, and a nociceptin agonist (1 mg/kg) were administered to the test mice hypodermically, and the quantity of their motion for 60 minutes was measured. To the control group mice, the solvent only was administered. The evaluation was made by representing the quantity of motion of the mice administered with the test compound by percent, where the difference in the quantity of motion between the nociceptin agonist-administered group and that of the solvent-administered control group during the test time was set to be 100%.

T1 sequence (P41146 whole entry): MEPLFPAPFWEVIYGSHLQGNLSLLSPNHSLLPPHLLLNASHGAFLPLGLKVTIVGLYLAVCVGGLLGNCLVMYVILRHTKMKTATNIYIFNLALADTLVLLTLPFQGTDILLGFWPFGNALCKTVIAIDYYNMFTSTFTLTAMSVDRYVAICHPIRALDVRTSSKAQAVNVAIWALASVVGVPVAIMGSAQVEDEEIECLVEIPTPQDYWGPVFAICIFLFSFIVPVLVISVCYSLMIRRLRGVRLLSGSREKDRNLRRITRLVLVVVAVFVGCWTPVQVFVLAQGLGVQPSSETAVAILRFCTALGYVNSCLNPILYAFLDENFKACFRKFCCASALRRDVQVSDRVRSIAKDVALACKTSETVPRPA

Row | SMILES | IC50 (nociceptin receptor ORL1 [1]) | IC50 (nociceptin receptor ORL1 [2]) | Quantity of Motion (%) (male ICR (CD-1) mice) | melting point | IC50 (nociceptin receptor ORL1 [2]; read-out: IC50 value)
1 | CC1(C)OC2(CC3CCC(C2)N3C[C@@H]2Cc3cccnc3[C@@H](O)C2)c2cnc(F)cc21 (stereo partly drawn) [Example 70, (6R,8S)-6-[(5′-fluoro-3′,3′-dimethyl-3′H-6′-azaspiro[8-azabicyclo[3.2.1]octane-3,1′-isobenzofuran]-8-yl)methyl]-5,6,7,8-tetrahydroquinolin-8-ol mono-L-tartrate] | 0.32 nM | 0.39 nM |  |  | 
2 | O[C@H]1C[C@H](CN2C3CCC2CC2(C3)OCc3cc(F)ncc32)CCc2cccnc21 (stereo partly drawn) [Example 23, (7R,9S)-7-(6′-aza-5′-fluoro-spiro[8-aza-bicyclo[3.2.1]-octa-3,1′(3′H)-isobenzofuran]-8-ylmethyl)-6,7,8,9-tetrahydro-5H-cyclohepta[b]pyridin-9-ol mono-L-tartrate] | 1.2 nM | 0.53 nM |  |  | 
3 | Cc1ccccc1[C@H]1CCN(C[C@@H]2CCc3cccnc3[C@@H](O)C2)C[C@@H]1O.O=C(O)C(O)C(O)C(=O)O (relative stereo) [Example 16, (7R,9S)-7-[(3R*,4R*)-3-hydroxy-4-o-tolyl-piperidin-1-ylmethyl]-6,7,8,9-tetrahydro-5H-cyclohepta[b]pyridin-9-ol mono-L-tartrate] |  |  | >75% |  | 
4 | O[C@H]1C[C@H](CN2C3CCC2CC2(C3)OCc3ccccc32)CCc2cccnc21 (stereo partly drawn) [Example 10, (7R,9S)-7-(spiro[8-aza-bicyclo[3.2.1]octa-3,1′(3′H)-isobenzofuran]-8-ylmethyl)-6,7,8,9-tetrahydro-5H-cyclohepta[b]pyridin-9-ol] | 0.08 nM | 0.37 nM |  |  | 
5 | Cc1cc(F)ccc1[C@H]1CCN(C[C@@H]2CCc3cccnc3[C@@H](O)C2)C[C@@H]1O (single isomer, unassigned) [Example 17, (7R,9S)-7-[(3R*,4R*)-(4-fluoro-o-tolyl)-3-hydroxypiperidin-1-ylmethyl]-6,7,8,9-tetrahydro-5H-cyclohepta[b]pyridin-9-ol monohydrochloride] |  |  | >75% |  | 
6 | Cl.O[C@@H]1[C@@H](c2ccc(F)cc2Cl)CC2CC[C@@H]1N2C[C@@H]1Cc2cccnc2[C@@H](O)C1 (relative stereo) [Example 71, (6R,8S)-6-[(1S*,2R*,3R*)-3-(2-chloro-4-fluorophenyl)-2-hydroxy-8-azabicyclo[3.2.1]octan-8-ylmethyl]-5,6,7,8-tetrahydroquinolin-8-ol monohydrochloride] | 0.68 nM | 1.4 nM |  | 238 °C (dec.) | 
7 | Cl.O[C@H]1C[C@H](CN2CC[C@H](c3ccc(F)cc3Cl)[C@@H](O)C2)Cc2cccnc21 [Example 33, (6R,8S)-6-[(3R,4R)-4-(2-chloro-4-fluorophenyl)-3-hydroxypiperidin-1-ylmethyl]-5,6,7,8-tetrahydroquinolin-8-ol monohydrochloride] |  |  | >75% |  | 
8 | O=C(O)C(O)C(O)C(=O)O.O[C@H]1C[C@H](CN2CCC(F)(c3ccccc3Cl)CC2)Cc2cccnc21 [Example 29, (6R,8S)-6-[4-(2-chlorophenyl)-4-fluoropiperidin-1-ylmethyl]-5,6,7,8-tetrahydroquinolin-8-ol mono-L-tartrate] | 4.7 nM |  | >75% |  | 4.1 nM
9 | Cl.O[C@H]1C[C@H](CN2CC[C@H](c3ccccc3Cl)[C@@H](O)C2)CCc2cccnc21 (relative stereo) [Example 31, (7R,9S)-7-[(3R*,4R*)-4-(2-chlorophenyl)-3-hydroxypiperidin-1-ylmethyl]-6,7,8,9-tetrahydro-5H-cyclohepta[b]pyridin-9-ol monohydrochloride] | 2.1 nM |  | >75% |  | 6.7 nM
10 | CC1(C)OC2(CCN(C[C@@H]3Cc4cccnc4[C@@H](O)C3)CC2)c2ccccc21.O=C(O)C(O)C(O)C(=O)O [Example 25, (6R,8S)-6-(3,3-dimethyl-spiro[isobenzofuran-1(3H),4′-piperidin]-1′-ylmethyl)-5,6,7,8-tetrahydro-quinolin-8-ol mono-L-tartrate] | 4.2 nM | 2.5 nM | >75% |  | 
11 | O[C@H]1C[C@H](CN2C3CCC2CC2(C3)OCc3cc(F)ncc32)CCc2cccnc21 (stereo partly drawn) (as salt: tartrate) [Example 23, (7R,9S)-7-(6′-aza-5′-fluoro-spiro[8-aza-bicyclo[3.2.1]-octa-3,1′(3′H)-isobenzofuran]-8-ylmethyl)-6,7,8,9-tetrahydro-5H-cyclohepta[b]pyridin-9-ol mono-L-tartrate] |  |  |  | 133 to 141 °C | 
